Measurements: patent US10918626B2, “Method for improving pharmacokinetics” (Roche Palo Alto LLC, priority 2009, dated 2021)
Read-outs that look alike come from different tables or passages of the source.

How the values were obtained:
HCV = conditions: monotherapy; cited from earlier work
NS3/4A protease = target: T1, NS3/4A protease (Hepatitis C virus genotype 1a, UniProt P27958); test: NS3/4A proteolysis inhibition; assay type: biochemical; conditions: read-out: 50% inhibitory concentration (IC50), NS3/4A proteolysis
T1 construct: a serine protease encoded in the NS3 region

genotype 1 HCV replicon = test: cell-based potency assay employing a genotype 1 HCV replicon; conditions: Hepatitis C virus
[1] = Pharmacokinetic enhancement of R7227 by ritonavir in healthy adults; assay type: in vivo, human; conditions: for concentration at 12 h / Cmax / AUC(0-inf): human, plasma; for concentration at 12 h: read-out: C12 h, GLSM; for Cmax / AUC(0-inf): N 12
Description: Subjects were screened for participation in this study within 21 days before dosing. The study enrolled 14 healthy volunteers (n=14 per group). The dosing schedule is illustrated below: [table] […] was formulated into clear size 10 oval soft gelatin capsules for oral administration at a strength of 100 mg per capsule (anhydrous free acid equivalent). The capsule fill solution consists of […]-001, polyethylene glycol PEG400 (Macrogol 400), and butylated hydroxytoluene (BHT). All excipients are compendial grade (NF or EP). Gelatin Type 195 (NF, EP) is used as the bulk gel mass for the capsule shell, with small amounts of sorbitol liquid 85/70/00 (NF, EP) and water (USP) used as plasticizers. All study medications were with a meal. […] was administered orally as a single dose of a 100 mg soft gel capsule on days 1, 3 and 12. […] Blood samples (5 mL) were collected to determine plasma concentrations of […] (and metabolites when assays were available) according to the following schedule Day 1, PK samples (5 mL) were be collected before […] dosing (predose) and at 0.5, 1, 1.5, 2, 2.5, 3, 3.5, 4, 6, 8, 12, and 24 hours after […] dosing; Days 3 and 12, PK samples (5 mL) were collected before […] dosing (predose) and at 0.5, 1, 1.5, 2, 2.5, 3, 3.5, 4, 6, 8, 12, 24, 36, and 48 hours after […] dosing. Primary PK parameters of […] that were determined are Cmax and AUC0→∞. Secondary PK parameters of […] that were measured include Tmax and AUC0→last, CL/F, t1/2, C12 hr and C24 h. Analysis of variance (ANOVA) was applied to the log-transformed primary pharmacokinetic parameters. Two-sided 90% confidence intervals for the ratios of the geometric means of the primary parameters (AUC0→∞ and Cmax of […]) were derived for the following comparisons: […] Analysis of variance (ANOVA) was used to analyze all primary study parameters using the following model: Yij=μ+τi+sj+εij where Yij denotes the PK parameter to be analyzed, μ denotes the general mean of the transformed variable, τi, the fixed effect of treatment; sj the random effect of subject; εij (error). The random deviations εij are assumed to be independent and normally distributed with zero mean and common variance σ^2. The group comparisons τ […]+Ritonavir-τ[…], the residual variance σ^2, and the 90% confidence limits for the group comparisons were estimated from the ANOVA model. For log-transformed variables (AUC0→∞ and Cmax), the ratio of true group means and the confidence limits for the corresponding ratio of means of the untransformed variables will be calculated by exponentiation of the least squares means differences and the confidence limits for the transformed values, respectively.

recombinant CYPs = recombinant CYPs (Homo sapiens, UniProt P08684); test: metabolism by recombinant CYPs; assay type: in vitro ADME
Text: (§1) Therefore, a cytochrome P450 monooxygenase inhibitor in an amount effective to inhibit metabolism of the protease inhibitor could increase the bioavailability of R7227 compared to administration in the absence of the CYP inhibitor.

[2] = SAD study in healthy volunteers; assay type: in vivo, human
Text: (A. A. Mathias et al., Clin. Pharmacol. Ther. 2009 85(1)64-70).

CYP isozymes = test: cytochrome P450 phenotyping using chemical inhibitors; assay type: in vitro ADME
Text: as §1

[3] = po, 100 mg, Day 1 (alone), R7227 100 mg single oral dose
[4] = multiple doses of ritonavir 100 mg every 12 hours

T1 sequence (P27958 1658-1711): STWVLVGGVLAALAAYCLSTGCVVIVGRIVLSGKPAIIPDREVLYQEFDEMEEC
T1 sequence (P27958 1027-1657): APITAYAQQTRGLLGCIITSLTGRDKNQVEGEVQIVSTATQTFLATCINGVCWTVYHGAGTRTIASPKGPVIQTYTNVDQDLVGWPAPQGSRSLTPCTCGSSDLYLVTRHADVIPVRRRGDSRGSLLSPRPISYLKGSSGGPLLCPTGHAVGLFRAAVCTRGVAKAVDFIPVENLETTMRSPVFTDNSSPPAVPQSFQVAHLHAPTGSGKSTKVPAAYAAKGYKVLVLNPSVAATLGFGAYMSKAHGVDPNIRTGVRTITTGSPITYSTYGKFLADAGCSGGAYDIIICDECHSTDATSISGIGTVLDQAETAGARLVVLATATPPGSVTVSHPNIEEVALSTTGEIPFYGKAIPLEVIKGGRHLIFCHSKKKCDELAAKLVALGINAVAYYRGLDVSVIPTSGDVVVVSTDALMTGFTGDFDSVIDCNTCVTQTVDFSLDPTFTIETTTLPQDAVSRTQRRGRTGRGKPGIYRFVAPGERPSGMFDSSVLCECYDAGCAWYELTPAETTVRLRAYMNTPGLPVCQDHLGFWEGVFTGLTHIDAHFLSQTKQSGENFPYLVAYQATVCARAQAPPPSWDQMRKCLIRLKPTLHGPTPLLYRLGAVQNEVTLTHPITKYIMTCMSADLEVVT
Chain of recombinant CYPs (P08684 whole entry): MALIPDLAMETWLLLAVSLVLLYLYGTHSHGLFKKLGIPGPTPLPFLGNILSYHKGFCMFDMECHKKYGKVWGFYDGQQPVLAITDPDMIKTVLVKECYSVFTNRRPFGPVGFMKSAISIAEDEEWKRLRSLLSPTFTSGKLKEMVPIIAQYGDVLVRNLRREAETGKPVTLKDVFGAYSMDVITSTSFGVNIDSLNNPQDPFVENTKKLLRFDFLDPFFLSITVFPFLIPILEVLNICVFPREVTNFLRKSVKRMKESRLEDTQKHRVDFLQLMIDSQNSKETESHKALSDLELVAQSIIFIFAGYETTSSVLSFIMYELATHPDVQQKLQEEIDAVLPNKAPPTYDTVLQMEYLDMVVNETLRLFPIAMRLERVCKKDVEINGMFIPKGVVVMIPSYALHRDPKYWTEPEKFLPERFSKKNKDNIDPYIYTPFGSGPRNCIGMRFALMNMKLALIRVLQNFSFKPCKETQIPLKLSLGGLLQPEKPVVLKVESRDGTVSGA

Compound: NC(=O)c1ncn([C@@H]2O[C@H](CO)[C@@H](O)[C@H]2O)n1 [ribavirin, 1-((2R,3R,4S,5R)-3,4-dihydroxy-5-hydroxymethyl-tetrahydro-furan-2-yl)-1H-[1,2,4]triazole-3-carboxylic acid amide]
- patients with serum amino transferase levels reduced to normal (HCV): 40%

Compound: CC(C)(C)OC(=O)N[C@H]1CCCCC/C=C\[C@@H]2C[C@@]2(C(=O)NS(=O)(=O)C2CC2)NC(=O)[C@@H]2C[C@@H](OC(=O)N3Cc4cccc(F)c4C3)CN2C1=O [R7227]
- IC50 (NS3/4A protease): ≤ 0.225 nM
- IC50 (genotype 1 HCV replicon): 1.77 nM
- AUC0→∞, ratio of GLSM (90% CI) ([1]; Day 3 vs Day 1): 5.70 (4.07, 7.99)
- Cmax, ratio of GLSM (90% CI) ([1]; Day 3 vs Day 1): 3.14 (1.87, 5.25)
- C12 h, ratio of GLSM (90% CI) ([1]; Day 3 vs Day 1, N 8, non-missing non-BLQ data): 50.6 (25.6, 100)
- C12 h, ratio of GLSM (90% CI) ([1]; Day 3 vs Day 1, N 12, includes extrapolated day 1 values): 65.2 (34.8, 122)
- AUC0→∞, ratio of GLSM (90% CI) ([1]; Day 12 vs Day 1): 5.50 (4.05, 7.48)
- Cmax, ratio of GLSM (90% CI) ([1]; Day 12 vs Day 1): 3.25 (2.12, 4.96)
- C12 h, ratio of GLSM (90% CI) ([1]; Day 12 vs Day 1, N 8, non-missing non-BLQ data): 26.9 (17.7, 41.0)
- C12 h, ratio of GLSM (90% CI) ([1]; Day 12 vs Day 1, N 12, includes extrapolated day 1 values): 42.4 (25.7, 70.0)
- concentration at 12 h ([1]; oral, 100 mg, Day 1 (alone), N 8, non-missing non-BLQ data from all three treatment days): 0.02 ng/mL
- concentration at 12 h ([1]; oral, 100 mg, Day 1 (alone), N 12, includes extrapolated C12 h values from 4 subjects with BLQ values on day 1): 0.01 ng/mL
- concentration at 12 h ([1]; oral, Day 3 (with ritonavir single dose), N 8, non-missing non-BLQ data): 1 ng/mL
- Cmax ([1]; oral, Day 3 (with ritonavir single dose)): 26.4 ng/mL
- concentration at 12 h ([1]; oral, Day 3 (with ritonavir single dose), N 12 (set including extrapolated day 1 values)): 0.55 ng/mL
- concentration at 12 h ([1]; oral, Day 12 (with ritonavir multiple dose), N 8, non-missing non-BLQ data): 0.53 ng/mL
- Cmax ([1]; oral, Day 12 (with ritonavir multiple dose)): 27.3 ng/mL
- concentration at 12 h ([1]; oral, Day 12 (with ritonavir multiple dose), N 12 (set including extrapolated day 1 values)): 0.36 ng/mL
- AUC(0-inf) [1, 3]: 14.4 ng·h/mL
- Cmax [1, 3]: 8.4 ng/mL
- AUC(0-inf) ([1]; po, 100 mg, Day 3 (with ritonavir single dose), R7227 100 mg oral): 82 ng·h/mL
- AUC(0-inf) ([1]; po, 100 mg, Day 12 (with ritonavir multiple dose), R7227 100 mg oral): 79.4 ng·h/mL
- increase of R7227 AUC0→∞ [1, 4]: approximately 5.5 fold
- increase of R7227 Cmax [1, 4]: ~3.25 fold
- metabolism by recombinant CYPs (recombinant CYPs): only CYP3A4 metabolized R7227 to an extent that could influence the pharmacokinetics
- highest safe and tolerable dose [2]: 1600 mg
- CYP isozymes participating in metabolism (CYP isozymes): multiple CYP isozymes including 3A4, 2C19, 1A2, 2D6, and 2C9 participate in the metabolism
